# Patent publication US5602176A, “Phenyl carbamate” (priority 1987, dated 1997)
# What was measured:
# [1] = test system: levels of ACh in different regions of rat brain; assay: Acetylcholine levels in different rat brain regions; format: in vivo; conditions: p.o.
# Method: Acetylcholine levels in different rat brain regions
# The animals are killed by microwave irradiation focused on the head (6 kW operating power 2450 Mhz exposure 1.7 sec., Pueschner Mikrowellen-Energietechnik, Bremen). The brains are removed dissected according to Glowinski and Iversen (1966) and stored at -70° C. until analysis. The brain parts are homogenized in 0.1M perchloric acid containing internal deuterated standards of ACh-d4 and Ch(choline)-d4. After centrifugation, endogenous ACh and Ch together with their deuterated variants are extracted with dipicrylamine (2,2',4,4',6,6'-hexanitrodiphenylamine) in dichlormethane as ion pairs. The Ch moities are derivatized with propionyl chloride and the resulting mixture of ACh and propyl choline derivatives are demethylated with sodiumbenzenethiolate and analyzed by mass-fragmentography according to Jenden et al. Anal. Biochem., 55, 438-448, (1973).
# [2] = test system: dopamine metabolism in striatum; assay: Influence on dopamine metabolism; format: in vivo, rat; conditions: following administration
# Method: Influence on dopamine metabolism
# Male OFA rats (150-200 g) were used both for acute and subchronic experiments. The animals are maintained under 12 hour periods of light and dark. The animals are sacrificed always between 11.00 and 13.00 h. The brains are excised immediately, dissected on ice according to the method of GLOWINSKI and IVERSEN, J. Neurochem. 13, 655 (1966), frozen on dry ice and the tissue samples stored at -80° C. until analysis.
# Dopamine and its metabolites DOPAC (3,4-dihydroxyphenylacetic acid) and HVA (homovanillic acid) are determined in brain tissue extracts which are obtained by homogenisation of the stored brain tissue samples in 0.1N HCl containing 0.05 mM ascorbic acid and subsequent centrifugation. Striatal and cortical tissues are used.
# The determination of the metabolites is performed using either the gas chromatography/mass fragmentography (GCMS) technique as described by KAROUM et al., J. Neurochem. 25, 653 (1975) and CATABENI et al., Science 178, 166 (1972) or the fluorometric method as described by […] and MAITRE, Analyt. Biochem. 51, 474 (1973). For the GCMS method, tissue extracts are prepared by adding known amounts of deuterated monoamines and their respective metabolites as internal standards.
# [3] = test system: rat hippocampal slices (indirect method for acetylcholinesterase (AChE) inhibition); assay: Electrically evoked 3H-acetylcholine release from rat hippocampal slices; format: cell-based
# From the text: Electrically evoked ^3 H-acetylcholine release from rat hippocampal slices
# Electrically evoked ^3 H-acetylcholine (^3 H-ACh) release from rat hippocampal slices is a functional in vitro model to investigate presynaptic muscarinic autoreceptor agonists and antagonists. This model can also be used as an indirect method to evaluate drugs which inhibit acetylcholinesterase (AChE). Inhibition of AChE activity leads to the accumulation of endogenous ACh which then interacts with presynaptic muscarinic autoreceptors and inhibits further release of ^3 H-ACh.
# Rat hippocampal slices (Wistar strain, 180-200 g) are prepared by chopping into cross sections whole hippocampal slices at a distance of 0.3 mm with a McIlwain tissue chopper. Hippocampal slices obtained from 3 rats are incubated for 30 min. at 23° C. in 6 ml Krebs-Ringer containing 0.1 uCi ^3 H-choline and transferred into the superfusion chamber and superfused with Kreb's medium containing 10 μM hemicholinium-3 at a rate of 1.2 ml/min. at 30° C. Collection of 5 min. fractions of the superfusate begins after 60 min. of superfusion. Two periods of electrical stimulation (2 Hz rectangular pulses 2 msec, 10 mA, 2 min.) are applied after 70 min. (S1) and after 125 min. (S2) of superfusion. […] At the end of the experiments the slices are solubilized in conc. formic acid and tritium content is determined in the superfusate and the solubilized slices. Tritium outflow is expressed as the fractional rate of tritium outflow per min. Electrically evoked tritium outflow is calculated by subtraction of the extrapolated basal tritium outflow from the total tritium outflow during the two min. of electrical stimulation and the following 13 min. and is expressed as percent of the tritium content at the beginning of the sample collection. Drug effects on stimulation evoked tritium outflow are expressed as the ratios S2 /S1. All experiments are run in dublicates using a programmable 12 channel superfusion system. For the calculation a computer program is used.
# [4] = In vitro skin diffusion test (penetration through the skin); format: in vitro ADME; conditions: rat skin
# From the text: The penetration through the skin of the compounds for administration according to the invention may be observed in standard in vitro or in vivo tests.
# One in vitro test is the well known diffusion test which may be effected according to the principles set out in GB 2098865 A and by T. J. Franz in J. Invest. Dermatol. (1975) 64, 194-195. Solutions containing the active agent in unlabelled or radioactively labelled form are applied to one side of isolated pieces of intact human skin or hairless rat skin about 2 cm^2 in area. The other side of the skin is in contact with physiological saline. The amount of active agent in the saline is measured in conventional manner, e.g. by HPLC or spectrophotometric techniques, or by determining the radioactivity.
# In this test using rat skin the following penetration rates, for example, have been found: […]
# [5] = test system: deoxyglucose (DOG) utilisation in the brain; assay: Muscarinic and nicotinic effects on brain glucose utilisation (deoxyglucose autoradiography); format: in vivo, rat; conditions: 7.5 μmol/kg p.o.
# From the text: Muscarinic and nicotinic effects on brain glucose utilisation
# Changes in the functional activity of the CNS are associated with altered deoxyglucose (DOG) utilisation in the brain which can be visualised simultaneously in several brain regions using the autoradiographic method of Sokoloff et al., J. Neurochem. 28, 897 (1977). The administration of cholinergic drugs either direct (muscarinic agonists) or indirect (accumulation of acetylcholine) induces in this model a characteristic "fingerprint" pattern by modifying the regional glucose metabolism.
# Male Wistar rats (150-200 g) are used. Drugs are administered at various doses and by different routes (i.v., p.o., i.p.) to animals. [14C]-2-deoxyglucose (125 μC/kg) is injected 45 min. before the animals are sacrificed. The brains are immediately excised, frozen at -80° C. and subsequently cut in slices with a thickness of 20 μm. The optical densities of the radiographic images are measured according to a modification of Sokoloff et al.
# [6] = biological target: T1, AChE preparations of different rat brain regions (Rattus norvegicus, UniProt P37136); assay: Acetylcholinesterase inhibition in different rat brain regions (in vitro, Ellman); format: biochemical; conditions: table 1
# T1 construct: Rat brain tissue is homogenized in cold phosphate buffer pH 7.3; from tissue; host or cells: rat brain (cortex, hippocampus, striatum), supernatant of Triton X-100 homogenate
# Method: Acetylcholinesterase inhibition in different rat brain regions
# AChE preparations of different rat brain regions (Cortex, hippocampus and striatum) are used in this test and the IC50 (inhibitory concentrations in μM) are determined. The enzyme preparations are preincubated with the inhibitor 15 minutes before the determination.
# The AChE activity is measured according to the method described by Ellman (Arch. Biochem. Biophys. 82, 70, 1959). Rat brain tissue is homogenized in cold phosphate buffer pH 7.3 (0.25 mM) containing 0.1% of Triton X-100. After centrifugation aliquots of the clear supernatant is used as enzyme source. The enzyme is preincubated with different concentrations of the inhibitor. After different times, substrate (acetylthiocholinjodide 0.5 mM) is added and the remaining activity determined.
# T1 sequence (P37136 32-614): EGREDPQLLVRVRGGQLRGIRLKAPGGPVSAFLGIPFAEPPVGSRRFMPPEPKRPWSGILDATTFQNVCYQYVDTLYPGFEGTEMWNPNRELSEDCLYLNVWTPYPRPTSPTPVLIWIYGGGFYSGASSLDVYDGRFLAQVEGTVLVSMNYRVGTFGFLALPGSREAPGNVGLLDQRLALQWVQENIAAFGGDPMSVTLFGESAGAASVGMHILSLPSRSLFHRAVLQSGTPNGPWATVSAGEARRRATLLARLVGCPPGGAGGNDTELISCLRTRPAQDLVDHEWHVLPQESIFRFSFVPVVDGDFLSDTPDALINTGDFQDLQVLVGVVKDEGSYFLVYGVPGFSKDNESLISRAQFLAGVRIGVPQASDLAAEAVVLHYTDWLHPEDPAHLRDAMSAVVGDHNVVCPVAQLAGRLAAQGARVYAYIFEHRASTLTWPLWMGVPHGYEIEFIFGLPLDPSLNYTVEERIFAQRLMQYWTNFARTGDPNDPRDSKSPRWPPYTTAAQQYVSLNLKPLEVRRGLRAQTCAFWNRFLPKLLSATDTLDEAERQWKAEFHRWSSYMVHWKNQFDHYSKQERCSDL
Structure (SMILES),"influence on ACh levels in rat brain, comparison [1]",dopamine metabolism in striatum [2],antagonism of the inhibitory effect by atropine [3],"inhibition at 100 µM ([3]; Rattus norvegicus, 3 h, 100 μM, read-out: inhibition of electrically evoked 3H-ACh release from hippocampal slices)",penetration rate [4],changes in DOG utilisation in various rat brain regions [5],"AChE inhibition in vitro, comparison in words [6]",activity in the evoked 3H-ACh release model [3]
"CCN(C)C(=O)Oc1cccc(C(C)N(C)C)c1 (racemic) [Racemate C, (±)-N-ethyl-3-[(1-dimethylamino)ethyl]-N-methyl-phenyl-carbamate]",significantly weaker than that induced by compound A,increased,can be antagonized by atropine,~25%,–,–,–,–
"CCN(C)C(=O)Oc1cccc([C@H](C)N(C)C)c1 [Compound of formula I in free base form, (S)-N-ethyl-3-[(1-dimethylamino)ethyl]-N-methyl-phenyl-carbamate]",–,–,–,–,28.0±8.2%,–,–,–
"CCN(C)C(=O)Oc1cccc([C@@H](C)N(C)C)c1 [Compound B, reference compound]",significantly weaker than that induced by racemate C,increased,–,–,–,significant changes in DOG utilisation,significantly less active,inactive
